Laboratory results: patent publication US8933245B2, “Preservation of ergothioneine” (ELC Management LLC, priority 2009, dated 2015)
Several values for one entry are separate records, joined by “and”; a condition that tells them apart may be missing. Equal entries are not always repeated.

How the values were obtained:
[1] = cited from earlier work; for Ka: acid listed with one ionized form
[2] = Formation of fishy amine odor by boiling ergothioneine with sodium hydroxide or other components; type: physicochemical
Experimental: This became the assay system used to test agents and procedures for reduction or prevention of the odor.
Four samples of a 5 ml ergothioneine solution at 0.1% (w/v) were prepared in glass test tubes with screw caps. To the first was added 5 ml of water, to the second 5 ml of 0.2% (w/v) sodium metabisulfite, to the third 4 ml of water and 1 ml of 1N sodium hydroxide, and to the fourth 5 ml of 0.2% (w/v) citric acid. […] The samples were boiled for 10 minutes and each one was smelled.
This allowed the testing of methods to inhibit the formation of the odor and to suppress the odor after formation.

[3] = Preventing trimethylamine odor by addition of compounds before heating ergothioneine with sodium hydroxide; type: physicochemical; conditions: for % EGT (w/v): boiled 10 minutes, HPLC
Experimental: Samples were prepared in glass tubes with screw caps with about 0.05% (w/v) ergothioneine in water, a test sample, at the indicated concentration, and 0.1N NaOH (except for the first tube, in which NaOH was omitted as a negative control). The pH of each sample was determined by litmus paper, and then the tubes capped and placed in a boiling water bath for 10 minutes. The tubes were then cooled to room temperature, and then each one was uncapped and smelled by three testers, each of whom scored the odor. The scores were converted to a scale of 0 (no odor) to 3 (strong fishy trimethylamine odor) and then averaged.

[4] = Stability of ergothioneine solution at acidic pH on heating; type: physicochemical; conditions: 0.05% solution, pH 5, heating 40 C for 60 days
Source text: It has been observed that ergothioneine is quite stable at acidic pH. At pH 5 a 0.05% solution remains within 1% of its concentration after heating 40 C for 60 days. However, the reports of its stability in alkali are mixed in the literature. See, for example, Philip Hartman. “Ergothioneine as antioxidant”, Methods Enzymol. 186:310-318, 1990 at p. 311 (“ . . . the sulfur atom of Ergothioneine is remarkably stable to alkali”); H. Heath and G. Toennies. “The preparation and properties of Ergothioneine disulphide”, J. Chem. Soc. pages 204-210, (1958) at p. 204 (“the sulphur is completely unaffected by boiling 50% aqueous potassium hydroxide.”); Oxis International, Inc. Compound Monograph “L-Ergothioneine. Revision III”, at p. […] “Synthesis of L-(+)-Ergothioneine”, J. Org. Chem. 60:6296-6301, 1995 at p. 6296 (“this explains its stability toward oxidative dimerization”).

[5] = Formation of yellow addition product of ergothioneine and sodium metabisulfite; type: physicochemical; conditions: 1.25% ergothioneine and 5% sodium metabisulfite; cap removed, shaken, ambient air bubbled; after 6 to 7 minutes
[6] = Stability of ergothioneine during storage with and without citric acid (HPLC); type: physicochemical; conditions: percent of starting concentration, 2 mM in water; for % EGT with citric acid: 0.2% citric acid
Experimental: The samples were stored at 4° C., 25° C. or 40° C. for 30 or 60 days and then analyzed by HPLC. Each vial was used once and then discarded. Each measurement was made in triplicate and the results averaged. A standard curve of ergothioneine concentration was constructed at each time point to quantify the amount of ergothioneine in each vial. Each amount in Table 2 is expressed as percentage of the amount measured in the initial sample at the start of the experiment.

[7] = Formation of yellow addition product of ergothioneine and sodium metabisulfite; type: physicochemical
Experimental: The vials were sealed and mixing the samples was avoided. The samples were incubated and color development observed. The solutions were examined at 1 hour, and the optical density at 405 nm was measured at 2 hours (Table 9).
The cap was removed and the solution was then shaken for 3 to 4 minutes and ambient air was bubbled through it to drive out the dissolved sulfur dioxide gas. […] Therefore the loss of ergothioneine after addition of sodium metabisulfite is due to formation of an addition product which is reversible, and the ergothioneine is not permanently lost.

[8] = test sample 0.01%, about 0.05% ergothioneine, 0.1N NaOH, litmus paper
[9] = ergothioneine 1.25%, sodium metabisulfite 5.0%
[10] = ergothioneine 1.25%, sodium metabisulfite 7.5%
[11] = ergothioneine 1.25%, sodium metabisulfite 10%
[12] = ergothioneine 1.25%, sodium metabisulfite 12.5%
[13] = ergothioneine 1.25%, sodium metabisulfite 15%
[14] = ergothioneine 1.25%, sodium metabisulfite 17.5%
[15] = ergothioneine 1.25%, sodium metabisulfite 20%
[16] = ergothioneine 1.25%, sodium metabisulfite 22.5%
[17] = ergothioneine 1.25%, sodium metabisulfite 25%
[18] = ergothioneine 1.25%, sodium metabisulfite […]
[19] = ergothioneine […], sodium metabisulfite 0
[20] = test sample 0.05%, about 0.05% ergothioneine, 0.1N NaOH, litmus paper
[21] = test sample 0.2%, about 0.05% ergothioneine, 0.1N NaOH, litmus paper

SMILES: O=c1[nH]c(=O)c2[nH]c(=O)[nH]c2[nH]1 [uric acid]
- Ka [1]: 1.29E−4

SMILES: [Na+].[OH-] [sodium hydroxide]
- pH [2]: approximately 10

SMILES: CCCCC(=O)O [pentanoic acid]
- Ka [1]: 3.31E−5

SMILES: Cl [Hydrochloric acid]
- % EGT (w/v) ([3]; test sample 0.0001%, 0.1N NaOH): 0.050 % (w/v)
- pH ([3]; test sample 0.0001%, about 0.05% ergothioneine, 0.1N NaOH, litmus paper): 11.5
- % EGT (w/v) ([3]; test sample 0.01%, 0.1N NaOH): 0.050 % (w/v)
- pH [3, 8]: 10

SMILES: C[N+](C)(C)[C@@H](Cc1c[nH]c(=S)[nH]1)C(=O)[O-] [ergothioneine]
- change of concentration [4]: ≤ 1%
- color of solution after driving out sulfur dioxide [5]: nearly colorless with a yellow tinge
- % EGT with citric acid ([6]; 4° C., 30 days): 101.6%
- % EGT with citric acid ([6]; 4° C., 60 days): 105.8%
- % EGT with citric acid ([6]; 25° C., 30 days): 101.5%
- % EGT with citric acid ([6]; 25° C., 60 days): 102.2%
- % EGT with citric acid ([6]; 40° C., 30 days): 101.1%
- % EGT with citric acid ([6]; 40° C., 60 days): 99.6%
- % EGT without citric acid ([6]; 4° C., 30 days): 96.1%
- % EGT without citric acid ([6]; 4° C., 60 days): 106.5%
- % EGT without citric acid ([6]; 25° C., 30 days): 84.0%
- % EGT without citric acid ([6]; 25° C., 60 days): 100.5%
- % EGT without citric acid ([6]; 40° C., 30 days): 86.3%
- % EGT without citric acid ([6]; 40° C., 60 days): 99.8%
- color of solution ([7]; 1.25% ergothioneine and 5% sodium metabisulfite, one week at room temperature in a capped tube): intense lemon yellow
- Color description at 1 h [7, 9]: Near colorless
- OD405 at 2 hr [7, 9]: 0.104
- Color description at 1 h [7, 10]: Yellow tinge
- OD405 at 2 hr [7, 10]: 0.186
- Color description at 1 h [7, 11]: Slight yellow
- OD405 at 2 hr [7, 11]: 0.265
- Color description at 1 h [7, 12]: Light yellow
- OD405 at 2 hr [7, 12]: 0.456
- Color description at 1 h [7, 13]: Yellow
- OD405 at 2 hr [7, 13]: 0.593
- Color description at 1 h [7, 14]: Yellow
- OD405 at 2 hr [7, 14]: 0.966
- Color description at 1 h [7, 15]: Light lemon yellow
- OD405 at 2 hr [7, 15]: 1.993
- Color description at 1 h [7, 16]: Intense lemon yellow
- OD405 at 2 hr [7, 16]: 2.873
- Color description at 1 h [7, 17]: Intense lemon yellow
- OD405 at 2 hr [7, 17]: 3.126
- Color description at 1 h [7, 18]: Colorless
- OD405 at 2 hr [7, 18]: 0.044
- Color description at 1 h [7, 19]: Colorless
- OD405 at 2 hr [7, 19]: 0.004

SMILES: O=C(O)CC(O)(CC(=O)O)C(=O)O [citric acid]
- pH [3]: 8 and 10
- % EGT (w/v) ([3]; test sample 0.01%, 0.1N NaOH): 0.052 % (w/v)
- % EGT (w/v) ([3]; test sample 0.05%, 0.1N NaOH): 0.053 % (w/v)
- % EGT (w/v) ([3]; test sample 0.2%, 0.1N NaOH): 0.054 % (w/v)
- pH [2]: 5

SMILES: CCCCCCC(=O)O [heptanoic acid]
- Ka [1]: 1.29E−5

SMILES: O=C1O[C@H]([C@@H](O)CO)C(O)=C1O [ascorbic acid]
- % EGT (w/v) ([3]; test sample 0.01%, 0.1N NaOH): 0.050 % (w/v)
- pH [3, 8]: 10.5
- % EGT (w/v) ([3]; test sample 0.05%, 0.1N NaOH): 0.050 % (w/v)
- pH [3, 20]: 10.5
- % EGT (w/v) ([3]; test sample 0.2%, 0.1N NaOH): 0.047 % (w/v)
- pH [3, 21]: 5

SMILES: O=S(O)O [sulfurous acid]
- Ka (1) ([1]; first ionized form): 1.41E−2
- Ka (2) ([1]; second ionized form): 6.31E−8

SMILES: OB(O)O [boric acid]
- pH [3]: 8.5 and 10 and 10.5
- % EGT (w/v) ([3]; test sample 0.01%, 0.1N NaOH): 0.050 % (w/v)
- % EGT (w/v) ([3]; test sample 0.05%, 0.1N NaOH): 0.051 % (w/v)
- % EGT (w/v) ([3]; test sample 0.2%, 0.1N NaOH): 0.052 % (w/v)

SMILES: O=P(O)(O)O [phosphoric acid]
- % EGT (w/v) ([3]; test sample 0.01%, 0.1N NaOH): 0.052 % (w/v)
- % EGT (w/v) ([3]; test sample 0.05%, 0.1N NaOH): 0.054 % (w/v)
- % EGT (w/v) ([3]; test sample 0.2%, 0.1N NaOH): 0.058 % (w/v)

SMILES: CC(=O)O [acetic acid]
- % EGT (w/v) ([3]; test sample 0.01%, 0.1N NaOH): 0.050 % (w/v)
- pH [3, 8]: 10.5
- % EGT (w/v) ([3]; test sample 0.05%, 0.1N NaOH): 0.052 % (w/v)
- pH [3, 20]: 8
- % EGT (w/v) ([3]; test sample 0.2%, 0.1N NaOH): 0.052 % (w/v)
- pH [3, 21]: 4
- Ka [1]: 1.74E−5

SMILES: O=S([O-])S(=O)(=O)[O-].[Na+].[Na+] [sodium metabisulfite]
- % EGT (w/v) ([3]; test sample 0.01%, 0.1N NaOH): 0.044 % (w/v)
- pH [3, 8]: 10
- % EGT (w/v) ([3]; test sample 0.05%, 0.1N NaOH): 0.037 % (w/v)
- pH [3, 20]: 9.5
- % EGT (w/v) ([3]; test sample 0.2%, 0.1N NaOH): 0.029 % (w/v)
- pH [3, 21]: 6.5
- time to apparent reduction in the amount of ergothioneine (HPLC) ([7]; after addition of sodium metabisulfite, room temperature without boiling): ≤ 10 min
- pH ([2]; litmus paper, before boiling, 5 ml 0.1% ergothioneine plus 5 ml addition): 5
